{"source": "patent US20230313206A1", "about": "“System for inducible expression of an adapter in immune cells” (Miltenyi Biotec B.V. & Co. KG, priority 2020, published 2023)", "type_in_all_cases": "cell-based", "key": {"drug-inducible T cells": {"tested_on": "drug-inducible T cells", "assay": "Induction of anti-CD19 Fab-His6 secretion by drug-inducible primary T cells; supernatant stained on CD19+ Raji cells", "details": "4-OHT 0-500 nM", "description": "Lentiviral particles encoding for the drug-inducible cassette were manufactured as described in example 1.2. Drug-inducible T cells were generated as described in example 1.3. 1E4 LNGFR positive drug-inducible T cells were seeded in 100 μL TexMACS medium (Miltenyi Biotec) supplemented with IL-7 (Miltenyi Biotec) and IL-15 (Miltenyi Biotec) in a 96 round bottom well plate. Secretion of the His6-tagged anti-CD19 Fab was induced by the addition of different concentrations of 4-OHT (0-500 nM, Sigma-Aldrich) in 100 μL TexMACS medium (Miltenyi Biotec) supplemented with IL-7 (Miltenyi Biotec) and IL-15 (Miltenyi Biotec) to each well. Untransduced T cells constitute the negative control. Cells were incubated at 37° C. and 5% C02. His6-tagged anti-CD19 Fab containing supernatant was harvested 48 h after the induction. CD19^+ Raji cells were subsequently stained using T cell supernatant and anti-His-APC as secondary antibody. Therefore, 1E5 CD19^+ Raji cells were seeded in a 96 round bottom well plate. Cells were pelleted at 300 g for 5 min and stained with 50 μL of the collected T cell supernatant for 10 min at 4° C. […] The determined mean fluorescent intensity in the APC channel was correlated to the Fab concentration by extrapolation from a standard curve. […]"}, "CD19+ Raji cells": {"tested_on": "CD19+ Raji cells", "assay": "Cytolytic activity of anti-His adapter CAR T cells in co-culture with Raji cells and inducible anti-CD19 Fab T cells", "details": "adapter CAR T cells (E:T 2:1) and 1E4 inducible T cells, 6 days", "description": "Anti-His Adapter CAR T cell-mediated cytotoxicity against tumor cells was assessed by the quantification of living target cells using the MACSQuant® Analyzer 10 (Miltenyi Biotec). Therefore, 1E4 GFP^+ Raji cells were seeded in 50 μL TexMACS medium (Miltenyi Biotec) in a 96-well round-bottom plate. Anti-His Adapter CAR T cells were subsequently added at an E:T ratio of 2:1 in a volume of 50 μL TexMACS medium (Miltenyi Biotec). T cell numbers were adjusted to LNGFR expression implicating equal transduced and total T cell numbers in each well. The number of untransduced T cells was adjusted to total cell numbers. 1E4 anti-CD19 Fab inducible T cells that secrete the adapter molecule, a His-tagged anti-CD19 Fab, upon induction, were added to the respective wells. His-tagged anti-CD19 Fab secretion was induced by the addition of 100 nM 4-OHT (Sigma-Aldrich) in 50 μL TexMACS (Miltenyi Biotec) at the start of the assay. The plate was centrifuged at 300 g for 1 min and incubated at 37° C., 5% C02. The specific lysis of target cells was determined 6 days after co-culture set-up. […] Next, living target cells were quantified via flow cytometry. […] Living Raji tumor cells were defined as PI^−, GFP^+ cells and specific lysis was calculated according to the following formula: % specific lysis=(1−(Raji cell count [sample]/Raji cell count [target cell]))·100%."}, "[1]": {"tested_on": "PD-1 expression on T cells", "assay": "PD-1 expression (activation) of anti-His adapter CAR T cells in co-culture with Raji cells and inducible anti-CD19 Fab T cells", "details": "adapter CAR T cells (E:T 2:1) and 1E4 inducible T cells, day 2", "description": "To set up the co-culture, 1E4 GFP^+ Raji cells were seeded in 50 μL TexMACS medium (Miltenyi Biotec) in a 96-well round-bottom plate. Anti-His Adapter CAR T cells were subsequently added at an E:T ratio of 2:1 in a volume of 50 μL TexMACS medium (Miltenyi Biotec). T cell numbers were adjusted to LNGFR expression implicating equal transduced and total T cell numbers in each well. The number of untransduced T cells was adjusted to total cell numbers. 1E4 anti-CD19 Fab inducible T cells that secrete the adapter molecule, a His-tagged anti-CD19 Fab, upon induction, were added to the respective wells. His-tagged anti-CD19 Fab secretion was induced by the addition of 100 nM 4-OHT (Sigma-Aldrich) in 50 μL TexMACS (Miltenyi Biotec) at the start of the assay. The plate was centrifuged at 300 g for 1 min and incubated at 37° C., 5% C02 for 2 days. Activation of T cells was analyzed by staining the cells of the co-culture with anti-PD-1-PEVio770, CD3-VioBlue, CD8-VioGreen and LNGFR-APC conjugates (Miltenyi Biotec). Therefore, the co-culture plate was centrifuged at 300 g for 5 min and cells were stained with 50 μL staining mixture composed of the PD-1 PE07, conjugate (Miltenyi Biotec) diluted in PEB for 10 min at 4° C. Cells were washed twice with 200 μL PEB (300 g, 5 min). Cells were resuspended in 100 μL PEB for subsequent flow cytometric analysis. […]"}}, "data": [{"substance": "4-hydroxytamoxifen [4-OHT]", "values": [{"measurement": "Amount of His6-tagged anti-CD19-Fab in T cell supernatant with increasing 4-OHT concentration", "setting": "drug-inducible T cells; 48 h, Fab concentration extrapolated from standard curve", "value": "increasing amounts of His6-tagged anti-CD19-Fab is detected"}, {"measurement": "Induction of His6-tagged anti-CD19-Fab secretion by inducible T cells", "setting": "drug-inducible T cells; supernatant harvested 48 h after induction", "value": "strictly dependent on the presence of the inducer drug 4-OHT"}, {"measurement": "4-OHT concentration at which specific lysis of CD19+ Raji cells was detected", "setting": "CD19+ Raji cells", "value": "at least 1 nM"}, {"measurement": "4-OHT concentration giving maximal specific lysis", "setting": "CD19+ Raji cells", "value": "at least 10 nM"}, {"measurement": "4-OHT concentration at which PD-1 expression on T cells was detected", "setting": "[1]", "value": "at least 10 nM"}, {"measurement": "4-OHT concentration giving maximal frequency of PD-1 positive cells", "setting": "[1]", "value": "at least 50 nM"}]}]}
